Experimental data reported in patent US20030091998A1, “Association of beta2-adrenergic receptor haplotypes with drug response” (priority 2000, published 2003).

Test system: asthma patients
Experiment: In vivo FEV1 (bronchodilator) response to albuterol in asthma patients, by β2AR haplotype pair
Parameters: species or system human
Protocol: The patients in the asthma cohort were enrolled from an outpatient facility as described in detail elsewhere (Yan, L., Galinsky, R. E., Bernstein, J. A., Liggett, S. B. & Weinshilboum, R. M. (1999) Pharmacogenetics in Press). […] Forced expiratory volume in 1 second (FEV1) and forced vital capacity (FVC) were determined in triplicate. The predicted values for these measurements were calculated based on standard algorithms (Morris, J. F., Koski, A. & Johnson, L. C. (1971) Am Rev Respir Dis 103, 57-67).
The association between changes in % predicted FEV1 and haplotype pair was assessed by fitting an analysis of covariance model (ANCOVA) with terms for haplotype pair, sex and baseline severity. P-values from pairwise comparisons by haplotype pair were adjusted for multiple comparisons by applying the Holm-Sidak step-down procedure (Ludbrook, J. (1998) Clin and Exp Pharmacology & Physiology 25, 1032-1037.). […] In addition, the African-American asthma patients were excluded from the analysis due to the low number of individuals in this population group. For the analysis of individual SNPs, a similar ANCOVA model was employed with a discrete term for SNP genotype, and terms for sex and baseline severity. The Holm-Sidak step-down procedure was used to adjust the p-values from the individual SNP analyses for the number of tests performed.
Pairwise tests were made while correcting for multiple comparisons. […] For this analysis, a similar ANCOVA model as above was utilized. […] Since 0, 1 or 2 copies of these two haplotypes are present in our population as haplotype pairs 2/2, 2/4 and 4/4, a potential gene dose effect can be assessed by regression analysis.

SMILES: CC(C)(C)NCC(O)c1ccc(O)c(CO)c1 (centres unmarked) [albuterol]
- change % FEV1 (change in % predicted FEV1) (Caucasian asthma patients with β2AR haplotype pair 4/4, spirometry before and 30 min after inhalation of 180 μg albuterol by nebulization): 8.53±1.78%
- bronchodilator response to albuterol (asthmatic patients with β2AR haplotype pair 2/6): moderate bronchodilator response
- bronchodilator response to albuterol (asthmatic patients with β2AR haplotype pairs 2/2 and 4/6): respond well
- bronchodilator response to albuterol (asthmatic patients with β2AR haplotype pairs 2/4 and 4/4): little to no response
- greater response of haplotype pair 2/2 than haplotype pair 4/4 (in vivo FEV1 response, individuals with haplotype pair 2/2 vs 4/4 (FIG. 5)): ~50%
